Assay results: patent US10093679B2, “Amino sulfonyl-based compounds, the preparation method therefor and use thereof” (SUZHOU VIGONVITA LIFE SCIENCES CO., LTD., priority 2014, dated 2018)
Read-outs that look alike come from different tables or passages of the source.

Columns and labels:
[1] = tested on: maximal electroshock seizure; assay: Maximal electroshock seizure (MES) test on mice; format: in vivo; settings: 100 mg/kg intragastric
From the text: The Maximal Electroshock Seizure Test on Mice
MES (maximal electroshock seizure test) was used to evaluate whether the compounds have an effect against […] and thus to make preliminary evaluation of the efficacy of each compound in treating epilepsy. Multipurpose instrument for pharmacological and biological experiments (mode, YSD-4G) was used to conduct experiments under the condition of convulsive mode, 115V of stimulation voltage, 250 ms of stimulation time, 50 HZ AC voltage. Positive and negative electrodes were used to clamp the left and right ear of the mice, respectively, which were wetted by normal saline. The tonic hind limb extension seizure after stimulation was deemed as judgment standard of grand mal. The mice were randomly divided into groups. The compounds were given by intragastric administration based on the dose of 100 mg/kg.

[2] = Influence on rats' serum total cholesterol and triglyceride; format: in vivo, SD rats; parameters: total cholesterol / triglyceride: unit not given here; settings: for total cholesterol / triglyceride: rats' serum, 5 weeks after administration
Description: Study on the Influence of the Compounds on the Rats' Total Cholesterol and Triglyceride
50 male SD rats with weight of 180˜200 g were randomly divided into groups with 8 in each group. […] 5 weeks after administration, the level of total cholesterol and triglyceride in rats' serum were determined and the results were shown in table 2.

[3] = target: T1, Human carbonic anhydrase II (CA-II) (Homo sapiens, UniProt P00918); assay: Inhibiting effect on carbonic anhydrase (CO2 hydration, bromothymol blue colour change); format: biochemical
T1 construct: purchased Sigma
Description: Preparation Method of the Reagent
Chromogenic Buffer Solution:
HEPES was dissolved in distilled water to prepare a solution with a concentration of 10 mM; the pH was adjusted to 7.7 with 1 M Tris at 23° C.; bromothymol blue was dissolved in HEPES buffer solution with pH 7.7 to a concentration of 50 mg/L;
Saturated CO2-ice water was prepared by adding dry ice into icy distilled water.
Solution of CA-II enzyme was prepared into a concentration of 2 m/ml, and stored at −20° C.
Tested sample was prepared by using distilled water as solvent with various concentrations.
The time required for changing into yellow was recorded. The time required for the blank tube was recorded as t0, the time required for the standard tube was recorded as ts and the time required for the test tube was recorded as t. (t0−ts)/ts was normal activity of enzyme, and (t0−t)/t was the activity after affecting by the test compound.

[4] = tested on: maximal electroshock seizure; settings: literature value, cited from earlier work

SMILES | Inhibition rate of epileptic seizure ([1]; 0.5 h after administration) | Inhibition rate of epileptic seizure ([1]; 2 h after administration) | Inhibition rate of epileptic seizure ([1]; 1.5 h after administration) | other results
NS(=O)(=O)NCc1noc2cc(Cl)ccc12 [Example 1, N-[(6-chloro-benzo[d]isoxazol-3-yl)methyl]-sulfamide] | 66.7% | 50% | – | –
NS(=O)(=O)NCc1noc2cc(F)ccc12 [Example 2, N-[(6-fluoro-benzo[d]isoxazol-3-yl)methyl]-sulfamide] | – | 33.3% | – | –
NS(=O)(=O)NCc1noc2ccccc12 [Example 3, N-[(benzo[d]isoxazol-3-yl)methyl]-sulfamide] | 88.9% | 77.8% | 66.7% | total cholesterol ([2]; 20 mg/kg intragastric): 1.64 ± 0.28; triglyceride ([2]; 20 mg/kg intragastric): 1.13 ± 0.24; total cholesterol ([2]; 40 mg/kg intragastric): 1.53 ± 0.17; triglyceride ([2]; 40 mg/kg intragastric): 0.99 ± 0.16; total cholesterol ([2]; 80 mg/kg intragastric): 1.32 ± 0.21; triglyceride ([2]; 80 mg/kg intragastric): 0.84 ± 0.06; effect on the level of total cholesterol and triglyceride (in words) ([2]; rats' serum, 20, 40, 80 mg/kg, 5 weeks): significantly decrease; IC50 [3]: 154 µM; inhibiting effect on carbonic anhydrase compared with reference drugs (in words) [3]: poorer inhibiting effect than topiramate and zonisamide
CN(C)S(=O)(=O)NCc1noc2ccccc12 [Example 9, N-[(benzo[d]isoxazol-3-yl)methyl]-N′,N′-dimethyl-sulfamide] | 44.4% | 11.1% | – | –
NS(=O)(=O)NCc1ccsc1Cl [Example 13, N-[(2-chloro-3-thienyl)methyl]-sulfamide] | 37.5% | – | – | –
NS(=O)(=O)NCc1csc2ccccc12 [JNJ-26990990] | – | – | – | Inhibition rate of epileptic seizure ([4]; 0.5 h): 20%; Inhibition rate of epileptic seizure ([4]; 2 h): 60%
CC1(C)O[C@@H]2[C@@H](CO[C@@]3(COS(N)(=O)=O)OC(C)(C)O[C@@H]23)O1 [Topiramate, reference compound] | 37.5% | – | 37.5% | total cholesterol ([2]; 40 mg/kg intragastric): 1.56 ± 0.19; triglyceride ([2]; 40 mg/kg intragastric): 1.45 ± 0.34
NS(=O)(=O)Cc1noc2ccccc12 [Zonisamide, reference compound] | 33.3% | 16.7% | 16.7% | –
